The source of these data is US8293705B2, “HCV protease inhibitors and uses thereof” (Avila Therapeutics, Inc., priority 2007, dated 2012).

Assay [1] has as its system HCV RNA replicon in cell line ET (luc-ubi-neo/ET), human Huh7 hepatoma. Put plainly: Replicon luciferase assay, Example 26. The following applies: Hepatitis C virus, Huh-7, assay of Example 26, 72 hr; for EC50: read-out: Inhibition, Replicon, EC50 value; for EC90: read-out: Inhibition, Replicon, EC90 value. The assay is classed as cell-based. As for the experimental part: The compounds were assayed to evaluate the antiviral activity and cytotoxicity of compounds using replicon-derived luciferase activity. This assay used the cell line ET (luc-ubi-neo/ET), which is a human Huh7 hepatoma cell line that contains an HCV RNA replicon with a stable luciferase (Luc) reporter and cell culture-adaptive mutations. The ET cell line was grown in a 5% CO2 incubator at 37° C. in Dulbecco's modified essential media (DMEM) supplemented with 2 mM L-glutamine, nonessential amino acids, 100 U of penicillin/ml, 100 μg of streptomycin/mL, and 10% fetal bovine serum. G418 (Geneticin; Invitrogen) was added at a final concentration of 400 ug//mL.
All cell culture reagents were obtained from Invitrogen (Carlsbad). Cells were trypsinized (1% trypsin:EDTA) and plated out at 5×10^3 cells/well in white 96-well assay plates (Costar) dedicated to cell number (cytotoxicity) or antiviral activity assessments. Test compounds were added at six 3-fold concentrations each and the assay was run in DMEM, 5% FBS, 1% pen-strep, 1% glutamine, 1% non essential amino acid. Human interferon alpha-2b (PBL Biolabs, New Brunswick, N.J.) was included in each run as a positive control compound. Cells were processed 72 hr post test compound addition when the cells were still subconfluent. Antiviral activity was measured by analyzing replicon-derived luciferase activity using the Steady-Glo Luciferase Assay System (Promega, Madison, Wis.) according to manufacturer's instruction. The number of cells in each well was determined by Cell Titer Blue Assay (Promega). Compound profile was derived by calculating applicable EC50 (effective concentration inhibiting virus replication by 50%), EC90 (effective concentration inhibiting virus replication by 90%), IC50 (concentration decreasing cell viability by 50%) and SI50 (selective index: […]) values.

Assay [2] addresses T1, HCV NS3/4A 1b protease R155K (Hepatitis C virus genotype 1b, UniProt Q9WMX2, R1181K).
T1 construct: 10× stocks of NS3/4A protease enzyme from Bioenza (Mountain View, Calif.); purchased Bioenza (Mountain View, Calif.)
Put plainly: HCV protease FRET assay (IC50_APP), Example 16. The assay is classed as biochemical. The following applies: reaction started immediately after enzyme addition, read-out: Inhibition (apparent IC50, IC50_APP), HCV R155K. As for the experimental part: (§1) The following protocol was used to generate “apparent” IC50 (IC50 APP) values as depicted in Table 6, below. […] 5 μL of each enzyme were added to Corning (#3575) 384-well, black, microtiter plates (Corning, N.Y.) after spotting a 0.5 μL volume of 50% DMSO and serially diluted compounds prepared in 50% DMSO. Protease reactions were immediately started after enzyme addition with the addition of 45 μL of the FRET substrate and monitored for 60-90 minutes at λex485/λem520 in a Synergy^4 plate reader from BioTek (Winooski, Vt.). At the conclusion of each assay, progress curves from each well were examined for linear reaction kinetics and fit statistics (R^2, 95% confidence intervals, absolute sum of squares).
(§2) The compound numbers correspond to the compound numbers in Table 3. […] ;

In assay [3] the target is T2, HCV NS3/4A 1b protease D168A (Hepatitis C virus genotype 1b, UniProt Q9WMX2, D1194A).
T2 construct: 10× stocks of NS3/4A protease enzyme from Bioenza (Mountain View, Calif.); purchased Bioenza (Mountain View, Calif.)
Put plainly: HCV protease FRET assay (IC50_APP), Example 16. Format: biochemical. The protocol:
as §1, §2

Assay [4] addresses T3, HCV NS3/4A 1b protease wild type (Hepatitis C virus genotype 1b, UniProt Q9WMX2).
T3 construct: 10× stocks of NS3/4A protease enzyme from Bioenza (Mountain View, Calif.); purchased Bioenza (Mountain View, Calif.)
Put plainly: HCV protease FRET assay (IC50_APP), Example 16. Format: biochemical. As for the experimental part:
as §1, §2

In the case of `C=C[C@@H]1C[C@]1(NC(=O)[C@@H]1CC(OC(=O)N2Cc3cccc(F)c3C2)CN1C(=O)[C@H](CCC(=O)C#CC(C)(C)C)NC(=O)OC(C)(C)C)C(=O)NS(=O)(=O)C1CC1` (stereo partly shown) [Compound I-29], the EC50 in assay [1] fell in the range of 10 to 100 nM. The IC50 in assay [2], in assay [3] and in assay [4] was under 10 nM each time.
For the molecule `CC[C@@H]1C[C@]1(NC(=O)[C@@H]1CC(OC(=O)N2Cc3cccc(F)c3C2)CN1C(=O)[C@H](CCC(=O)C=C(C)C)NC(=O)OC(C)(C)C)C(=O)NS(=O)(=O)C1CC1` (stereo partly shown) [Compound I-33], the IC50 in assay [2] is 100 to 1000 nM; in assay [3], 1000 to 10000 nM; in assay [4] it was under 10 nM.
In the case of `C=CC(=O)N1CCC/C=C\[C@@H]2C[C@@]2(C(=O)NS(=O)(=O)C2CC2)NC(=O)[C@@H]2CC(OC(=O)N3Cc4cccc(F)c4C3)CN2C(=O)[C@@H](NC(=O)OC(C)(C)C)C1` (stereo partly drawn) [Compound I-35, (1aR,3aS,5R,9S,16aS,Z)-11-acryloyl-9-(tert-butoxycarbonylamino)-1a-(cyclopropylsulfonylcarbamoyl)-3,8-dioxo-1,1a,2,3,3a,4,5,6,8,9,10,11,12,13,14,16a-hexadecahydrocyclopropa[n]pyrrolo[2,1-c][1,4,8]triazacyclopentadecin-5-yl-4-fluoroisoindoline-2-carboxylate], in assay [1], the concentration giving a half-maximal response (EC50) was in the range of 100 to 1000 nM. Also, in assay [1], the EC90 is 100 to 1000 nM. The IC50 is 10 to 100 nM in assay [2], 10 to 100 nM in assay [3] and under 10 nM in assay [4].
Take `C=CC(=O)N1CC/C=C\[C@@H]2C[C@@]2(C(=O)NS(=O)(=O)C2CC2)NC(=O)[C@@H]2CC(OC(=O)N3Cc4cccc(F)c4C3)CN2C(=O)[C@@H](NC(=O)OC(C)(C)C)CC1` (stereo partly shown) [Compound I-36]: the EC50 in assay [1] was 100 to 1000 nM. Besides, the EC90 in assay [1] lay within 100 to 1000 nM. Also, the IC50 in assay [2], in assay [3] and in assay [4] was under 10 nM each time.
For the molecule `C=CC(=O)N1C/C=C\[C@@H]2C[C@@]2(C(=O)NS(=O)(=O)C2CC2)NC(=O)[C@@H]2CC(OC(=O)N3Cc4cccc(F)c4C3)CN2C(=O)[C@@H](NC(=O)OC(C)(C)C)CCC1` (stereo partly shown) [Compound I-37], the EC50 in assay [1] is 100 to 1000 nM. In assay [1], the EC90 is 1000 to 10000 nM. Moreover, the 50% inhibitory concentration (IC50) is 10 to 100 nM in assay [2], 10 to 100 nM in assay [3] and under 10 nM in assay [4].
For the molecule `C/C=C(\C)C(=O)CC[C@H](NC(=O)OC(C)(C)C)C(=O)N1CC(OC(=O)N2Cc3cccc(F)c3C2)C[C@H]1C(=O)N[C@]1(C(=O)NS(=O)(=O)C2CC2)C[C@H]1CC` (stereo partly shown) [Compound I-39], the IC50 is 10 to 100 nM in assay [2], 100 to 1000 nM in assay [3] and under 10 nM in assay [4].
The like results for `C=CC(=O)NC[C@@H]1NC(=O)OCC(C)(C)CC/C=C/c2cccc3c2CN(C3)C(=O)O[C@@H]2C[C@@H](C(=O)N[C@]3(C(=O)NS(=O)(=O)C4CC4)C[C@H]3C=C)N(C2)C1=O` [Compound I-40] were, in that order, under 10 nM, 10 to 100 nM and under 10 nM.
For `C=CC(=O)NC[C@@H]1NC(=O)OCC(C)(C)CCCCc2cccc3c2CN(C3)C(=O)O[C@@H]2C[C@@H](C(=O)N[C@]3(C(=O)NS(=O)(=O)C4CC4)C[C@H]3C=C)N(C2)C1=O` [Compound I-42], the IC50 is 10 to 100 nM in assay [2], 10 to 100 nM in assay [3] and under 10 nM in assay [4].
`CCCCC(NC(=O)[C@@H]1C[C@@H](OC(=O)N2Cc3cccc(F)c3C2)CN1C(=O)[C@H](CCC(=O)C=C(C)C)NC(=O)OC(C)(C)C)C(=O)NS(=O)(=O)C1CC1` (stereo partly drawn) [Compound I-44, (3R,5S)-1-((S)-2-(tert-butoxycarbonylamino)-7-methyl-5-oxooct-6-enoyl)-5-(1-(cyclopropanesulfonamido)-1-oxohexan-2-ylcarbamoyl)pyrrolidin-3-yl 4-fluoroisoindoline-2-carboxylate]: the IC50 in assay [2] was 1000 to 10000 nM; in assay [3], 1000 to 10000 nM; in assay [4] it was under 10 nM.
For `CC(C)(C)OC(=O)N[C@H]1CN(S(=O)(=O)c2ccccc2[N+](=O)[O-])CCC/C=C\[C@@H]2C[C@@]2(C(=O)NS(=O)(=O)C2CC2)NC(=O)[C@@H]2CC(OC(=O)N3Cc4cccc(F)c4C3)CN2C1=O` (stereo partly shown) [Compound I-45], the EC50 in assay [1] was in the range of 10 to 100 nM. For the same molecule, the EC90 in assay [1] was 100 to 1000 nM. Moreover, the IC50 in assay [2], in assay [3] and in assay [4] was under 10 nM each time.
Take `C=CC(=O)N1CC(C(NC(C)=O)C(=O)N2CC(OC(=O)N3Cc4cccc(F)c4C3)C[C@H]2C(=O)N[C@]2(C(=O)NS(=O)(=O)C3CC3)C[C@H]2C=C)C1` (stereo partly shown) [Compound I-46]: in assay [1], the EC50 was 1000 to 10000 nM. Moreover, the concentration for an effect of 90% (EC90) in assay [1] fell in the range of 1000 to 10000 nM. Further, the 50% inhibitory concentration (IC50) in assay [2] is under 10 nM; in assay [3], 10 to 100 nM; in assay [4], under 10 nM.
Consider `CC(C)(C)OC(=O)N[C@H]1CN(C(=O)CCl)CCC/C=C\[C@@H]2C[C@@]2(C(=O)N(C(=O)CCl)S(=O)(=O)C2CC2)NC(=O)[C@@H]2CC(OC(=O)N3Cc4cccc(F)c4C3)CN2C1=O` (stereo partly shown) [Compound I-48], for which the IC50 was 100 to 1000 nM in assay [2], 100 to 1000 nM in assay [3] and 10 to 100 nM in assay [4].
Take `C=C[C@@H]1C[C@]1(NC(=O)[C@@H]1CC(OC(=O)N2Cc3cccc(F)c3C2)CN1C(=O)[C@@H](C)Nc1ccnc(Cl)n1)C(=O)NS(=O)(=O)C1CC1` (stereo partly shown) [Compound I-49]: in assay [1], the EC50 lay in the range of 1000 to 10000 nM. Further, the EC90 in assay [1] was in the range of 1000 to 10000 nM. Moreover, the IC50 in assay [2] fell in the range of 1000 to 10000 nM; in assay [3] it was 1000 to 10000 nM; in assay [4] it was 100 to 1000 nM.
For `C=CC(=O)N(C)CC(NC(=O)C12CCC(C(=O)OC)(CC1)CC2)C(=O)N1CC(OC(=O)N2Cc3cccc(F)c3C2)C[C@H]1C(=O)N[C@]1(C(=O)NS(=O)(=O)C2CC2)C[C@H]1C=C` (stereo partly shown) [Compound I-52], in assay [1], the EC50 was in the range of 1000 to 10000 nM and the EC90 lay in the range of 1000 to 10000 nM. For the same molecule, in assay [3], the IC50 was in the range of 1000 to 10000 nM. Also, in assay [4], the IC50 lay in the range of 10 to 100 nM.
Consider `CC[C@@H]1C[C@]1(NC(=O)[C@@H]1C[C@@H](OC(=O)N2Cc3cccc(F)c3C2)CN1C(=O)[C@H](CC(=O)C=C(C)C)NC(=O)OC(C)(C)C)C(=O)NS(=O)(=O)C1CC1` [Compound I-60], for which the IC50 in assay [2] was 100 to 1000 nM; in assay [4], under 10 nM.
As for `CC(C)(C)OC(=O)N[C@H]1COC(=O)/C=C/C=C\[C@@H]2C[C@@]2(C(=O)NS(=O)(=O)C2CC2)NC(=O)[C@@H]2C[C@@H](OC(=O)N3Cc4cccc(F)c4C3)CN2C1=O` [Compound I-65], the IC50 in assay [2] was 10 to 100 nM; in assay [3], 100 to 1000 nM; in assay [4] it was under 10 nM.
For the molecule `C/C=C/C(=O)OC1CC/C=C\[C@@H]2C[C@@]2(C(=O)NS(=O)(=O)C2CC2)NC(=O)[C@@H]2C[C@@H](OC(=O)N3Cc4cccc(F)c4C3)CN2C(=O)[C@@H](NC(=O)OC(C)(C)C)CC1` (stereo partly shown) [Compound I-66], the IC50 in assay [2], in assay [3] and in assay [4] was under 10 nM throughout.
As for `C=C[C@@H]1C[C@]1(NC(=O)[C@@H]1C[C@@H](OC(=O)N2Cc3cccc(F)c3C2)CN1C(=O)[C@H](COC(=O)/C=C/C=C/C)NC(=O)OC(C)(C)C)C(=O)NS(=O)(=O)C1CC1` [Compound I-67], the IC50 in assay [2] is 100 to 1000 nM; in assay [3] it was 100 to 1000 nM; in assay [4], under 10 nM.
With `C=C[C@@H]1C[C@]1(NC(=O)[C@@H]1CC(OC(=O)N2Cc3cccc(F)c3C2)CN1C(=O)[C@H](CC(=O)/C(C)=C/C)NC(=O)OC(C)(C)C)C(=O)NS(=O)(=O)C1CC1` (stereo partly shown) [Compound I-70], the IC50 in assay [2] was 100 to 1000 nM; in assay [3], 100 to 1000 nM; in assay [4] it was under 10 nM.
Take `C=C[C@@H]1C[C@]1(NC(=O)[C@@H]1CC(OC(=O)N2Cc3cccc(F)c3C2)CN1C(=O)[C@H](CC/C=C/C(=O)OC)NC(=O)OC(C)(C)C)C(=O)NS(=O)(=O)C1CC1` (stereo partly shown) [Compound I-72]: the IC50 was 10 to 100 nM in assay [2], 100 to 1000 nM in assay [3] and under 10 nM in assay [4].

The EC50 is the concentration at which the effect is half-maximal. For orientation: IC50 means the concentration that gives 50% inhibition. Broadly, the EC90 is the point of the concentration-response curve where the effect stands at 90%.
